Laboratory results: patent US20230303510A1, “CYCLIZED ACETAMIDO DERIVATIVES AS DNA POLYMERASE THETA INHIBITORS” (Ideaya Biosciences, Inc., priority 2020, published 2023)

Assays:
[1] = target: T1, Pol theta polymerase domain (residues 1819-2590) (Homo sapiens, UniProt O75417); test: Primer extension assay (inhibition of polymerase activity of Pol theta, molecular beacon fluorescence); assay type: biochemical; details: Pol theta polymerase domain 4 nM; fluorescence change over 30 min
T1 construct: Pol theta polymerase domain (residues 1819-2590) at a final concentration of 4 nM
T1 sequence (O75417 1819-2590): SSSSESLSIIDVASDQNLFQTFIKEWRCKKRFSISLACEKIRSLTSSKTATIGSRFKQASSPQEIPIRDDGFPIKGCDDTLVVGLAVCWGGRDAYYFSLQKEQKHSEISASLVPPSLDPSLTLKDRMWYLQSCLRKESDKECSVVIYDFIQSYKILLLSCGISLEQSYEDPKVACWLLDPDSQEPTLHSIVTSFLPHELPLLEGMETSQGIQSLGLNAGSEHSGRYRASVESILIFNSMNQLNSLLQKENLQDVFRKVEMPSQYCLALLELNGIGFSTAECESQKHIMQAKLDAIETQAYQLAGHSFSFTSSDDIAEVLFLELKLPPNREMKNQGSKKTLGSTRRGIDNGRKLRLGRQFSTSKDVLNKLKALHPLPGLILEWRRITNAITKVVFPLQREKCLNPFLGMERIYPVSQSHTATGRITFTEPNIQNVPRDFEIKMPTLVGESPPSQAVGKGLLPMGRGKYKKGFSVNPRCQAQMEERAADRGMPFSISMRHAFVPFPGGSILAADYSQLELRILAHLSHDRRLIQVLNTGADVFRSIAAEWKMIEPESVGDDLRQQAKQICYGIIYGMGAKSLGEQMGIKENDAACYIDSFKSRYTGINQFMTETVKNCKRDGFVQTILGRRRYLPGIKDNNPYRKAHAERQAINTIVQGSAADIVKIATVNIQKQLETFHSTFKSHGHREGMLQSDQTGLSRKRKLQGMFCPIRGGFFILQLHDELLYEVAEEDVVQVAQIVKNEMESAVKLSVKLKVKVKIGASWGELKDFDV
Protocol: The ability of the compounds of Formula (I) or Formula (II) to inhibit polymerase activity of Pol theta was determined using the primer extension assay as set forth below.
A mixture of 20 uL of Pol theta polymerase domain (residues 1819-2590) at a final concentration of 4 nM in assay buffer (20 m M TRIS, pH 7.80, 50 mM KCl, 10 mM MgCl2, 1 mM DTT, 0.01% BSA, 0.01% Tween20) was added to test compounds (11-point dilution series of test compounds) except the low control wells without test compounds. The above enzyme and test compound inhibitor mixture was then incubated at room temperature for 15 min. An equal volume (20 μl) of dNTP substrate mixture (48 μM) and primed molecular beacon DNA (obtained by annealing template SEQ ID NO:2: (5′-CCTTCCTCCCGTGTCTTG-TACCTTCCCGTCA-GGAGGAAGG-3′) with 5′-TAMRA and 3′-BHQ and primer DNA (SEQ ID NO:3; 5′-GACGGGAAGG-3′) in 10 mM Tris-HCl pH 8.0, 100 mM NaCl buffer) (96 nM) in assay buffer was added to all the test wells. The inhibition activity was measured by monitoring the fluorescence change over 30 min at 535 nm upon excitation at 485 nm. The high control (DMSO with enzyme) with high fluorescence intensity represents no inhibition of polymerase reaction while the low control (DMSO with buffer) with low fluorescence intensity represents full inhibition of polymerase activity. Slope of the reaction progress curves were used to calculate the rate of polymerization. The rates were used to determine the percent inhibition using a four-parameter inhibition model to generate IC50, Hill slope and max inhibition.

[2] = target: T2, Pol theta (residues 1819-2590) (Homo sapiens, UniProt O75417); test: PPi assay (inhibition of polymerase activity of Pol theta, PPiLite luminescence); assay type: biochemical; details: Pol theta 2.8 nM; luminescence kinetic mode 90 min
T2 construct: Pol theta polymerase domain (residues 1819-2590) at a final concentration of 4 nM
T2 sequence (O75417 1819-2590): T1 sequence (O75417 1819-2590)
Protocol: The ability of the compounds of Formula (I) or Formula (II) to inhibit polymerase activity of Pol theta was determined using the PPi assay as set forth below.
A mixture of template DNA strand (SEQ ID NO:4: 5′ ATTACTGACCTCATACTTCTGCCCTTCCATGTTCTGTGCCCTCCTTCC 3′) and primer DNA strand (SEQ ID NO:5: 5′ GGA AGG AGG GCA CAG AAC 3′) was annealed in 10 mM Tris-HCl pH 8.0, […] buffer to form the primed DNA substrate. A 10-point dilution series of compounds were used in a 384 well format for the inhibition assay. Pol theta (residues 1819-2590) (2.8 nM) in assay buffer (20 mM Tris-HCl pH 7.8, 50 mM KCl, 10 mM MgCl2, 1 mM DTT, 0.01% BSA, 0.01% Tween-20) was transferred to the test wells (10 uL), except for the low control wells. The plate was then incubated at room temperature for 15 mins. An equal volume (10 μL) of dNTP substrate (40 μM) and primed DNA substrate (800 nM) in assay buffer was added to all the test wells. 20 μL of PPi detection reagent (PPiLite inorganic pyrophosphate assay, Lonzo) was then added to all test wells. The plate was then centrifuged at 1000 rpm for 1 min. The reaction was monitored in a Tecan M1000 Pro plate reader in luminescence kinetic mode for 90 min. The high control (DMSO with enzyme) with high luminescence represents no inhibition of the polymerase reaction while the low control (DMSO with buffer) with low luminescence represents full inhibition of the polymerase activity. Slope of the reaction progress curves were used to calculate the rate of polymerization. The rates were used to determine the percent inhibition using a four-parameter inhibition model to generate IC50, Hill slope, maximum inhibition, and minimum inhibition.

Row | SMILES | IC50 [1] | IC50 [2]
1 | CN(C(=O)[C@H]1CCCN1c1cc(C(F)(F)F)cc(C(F)(F)F)n1)c1ccc(F)cc1 [1.002, (R)-1-(4,6-bis(trifluoromethyl)pyridin-2-yl)-N-(4-fluorophenyl)-N-methylpyrrolidine-2-carboxamide] | 1000 to 10000 nM | 1000 to 10000 nM
2 | CN(C(=O)[C@@H]1CCCN1c1cc(C(F)(F)F)cc(C(F)(F)F)n1)c1ccc(F)cc1 [1.003, (S)-1-(4,6-bis(trifluoromethyl)pyridin-2-yl)-N-(4-fluorophenyl)-N-methylpyrrolidine-2-carboxamide] | ≤ 200 nM | ≤ 200 nM
3 | CN(C(=O)C1COCCN1c1cc(C(F)(F)F)cc(C(F)(F)F)n1)c1ccc(F)cc1 (centres unmarked) [1.006, 4-(4,6-bis(trifluoromethyl)pyridin-2-yl)-N-(4-fluorophenyl)-N-methylmorpholine-3-carboxamide] | ≤ 200 nM | 1000 to 10000 nM
4 | CN(C(=O)[C@@H]1[C@@H](O)CCN1c1cc(C(F)(F)F)cc(C(F)(F)F)n1)c1ccc(F)cc1 [1.019, (2S,3S)-1-(4,6-bis(trifluoromethyl)pyridin-2-yl)-N-(4-fluorophenyl)-3-hydroxy-N-methylpyrrolidine-2-carboxamide] | ≤ 200 nM | ≤ 200 nM
5 | CC(=O)N[C@H]1C[C@@H](C(=O)N(C)c2ccc(F)cc2)N(c2cc(C(F)(F)F)cc(C(F)(F)F)n2)C1 [1.020, (2S,4S)-4-acetamido-1-(4,6-bis(trifluoromethyl)pyridin-2-yl)-N-(4-fluorophenyl)-N-methylpyrrolidine-2-carboxamide] | ≤ 200 nM | ≤ 200 nM
6 | CC(=O)N[C@@H]1C[C@@H](C(=O)N(C)c2ccc(F)cc2)N(c2cc(C(F)(F)F)cc(C(F)(F)F)n2)C1 [1.022, (2S,4R)-4-acetamido-1-(4,6-bis(trifluoromethyl)pyridin-2-yl)-N-(4-fluorophenyl)-N-methylpyrrolidine-2-carboxamide] | ≤ 200 nM | ≤ 200 nM
7 | CN(C(=O)C1CCCN1c1nc(C(F)(F)F)cc(C(F)(F)F)c1C#N)c1ccc(F)cc1 (centres unmarked) [1.024, 1-(3-cyano-4,6-bis(trifluoromethyl)pyridin-2-yl)-N-(4-fluorophenyl)-N-methylpyrrolidine-2-carboxamide] | ≤ 200 nM | ≤ 200 nM
